Here are results for eight molecules from US20250179047A1, “5-[7-(3,4-DIHYDRO-1H-ISOQUINOLINE-2-CARBONYL)-1,2,3,4 TETRAHYDROISOQUINOLIN-6-YL]-1H-PYRROLE-3-CARBOXAMIDE DERIVATIVES, PHARMACEUTICAL COMPOSITIONS CONTAINING THEM AND THEIR USES AS PRO-APOPTOTIC AGENTS” (LES LABORATOIRES SERVIER, priority 2022, published 2025).

One may read the IC50 as the concentration that inhibits the measured activity by half.

One series has as its target CYP3A4 (Homo sapiens (Human), UniProt P08684). Description: CYP3A4 inhibition determination in hepatic human microsomes. The format is in vitro ADME. The settings on record: LC/MS-MS of specific metabolite. On the procedure:
The inhibitory potential was determined on CYP3 Å4 enzyme using hepatic human microsomes. A range of concentrations (adapted based on the solubility) of the tested compound were incubated in presence of a substrate having a specific metabolite of CYP3 Å4 enzyme.
Then, the formation of the metabolite was quantified using LC/MS-MS analysis and a curve corresponding to the concentration of the metabolite in function of the concentration of the test compound allowed to the calculation of the IC50 value.

The subject of the next series is platelets. Description: Platelet depletion in SCID mice. The format is in vivo. The settings on record: 25 mg/kg IV bolus, vs control group; for Platelet loss (%) 6 h: 6 h after dosing; for Platelet loss (%) 24 h: 24 h after dosing. On the procedure: Pharmacokinetic (PK) and platelet toxicity were investigated in SCID mice. Compounds were administered at 25 mg/kg by IV bolus, and formulated in PEG/Ethanol/NaCl 0.9% (40/10/50 v/v/v).
Blood samples (3 animals/time point and 3 time points/animal) were collected over 24 h after dosing: 0.05 h, 0.5 h, 1 h, 3 h, 6 h and 24 h for PK and 6 h and 24 h for platelets.
PK samples were analyzed by liquid chromatography using tandem mass spectrometry detection (LC-MS/MS) and platelet count (109/L) was measured using an hematology analyzer. Percentage of platelet loss was calculated at both time points (T+6 h and 24 h) as compared to a control group of 6 animals. PK parameters (Cinf and AUC24, which correspond to the concentration at the end of bolus administration and the area under curve over 24 h, respectively) were also determined using a non-compartmental analysis.

Chain of CYP3A4 (P08684 whole entry): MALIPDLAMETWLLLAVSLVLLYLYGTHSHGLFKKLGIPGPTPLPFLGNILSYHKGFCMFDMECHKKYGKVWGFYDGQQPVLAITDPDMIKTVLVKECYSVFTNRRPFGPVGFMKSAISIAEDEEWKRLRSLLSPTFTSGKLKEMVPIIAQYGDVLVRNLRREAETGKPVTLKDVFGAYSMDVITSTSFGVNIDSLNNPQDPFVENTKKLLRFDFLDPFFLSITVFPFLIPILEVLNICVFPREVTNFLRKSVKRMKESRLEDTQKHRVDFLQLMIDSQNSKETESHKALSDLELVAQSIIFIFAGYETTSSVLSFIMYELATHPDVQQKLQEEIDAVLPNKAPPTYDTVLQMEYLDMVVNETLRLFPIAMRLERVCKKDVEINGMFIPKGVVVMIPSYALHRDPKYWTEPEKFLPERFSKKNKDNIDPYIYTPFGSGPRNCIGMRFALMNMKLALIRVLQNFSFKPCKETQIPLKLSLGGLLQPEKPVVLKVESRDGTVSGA

For the molecule `Cc1c(N(C(=O)c2cc(-c3cc4c(cc3C(=O)N3Cc5ccccc5C[C@H]3C)CN(C(=O)Cc3ccc(OCCN5CCOCC5)cc3)CC4)n(C)c2C)c2ccc(O)cc2)cc(C#N)n1C` [Example 21, N-(5-cyano-1,2-dimethyl-1H-pyrrol-3-yl)-N-(4-hydroxyphenyl)-1,2-dimethyl-5-{7-[(3R)-3-methyl-1,2,3,4-tetrahydroisoquinoline-2-carbonyl]-2-(2-{4-[2-(morpholin-4-yl)ethoxy]phenyl}acetyl)-1,2,3,4-tetrahydroisoquinolin-6-yl}-1H-pyrrole-3-carboxamide], the concentration for half-maximal inhibition (IC50) on CYP3A4 was determined as 6.2 µM. Also, in the series on platelets, the “Platelet loss (%) 6 h” value amounted to 58.4% and the “Platelet loss (%) 24 h” value stood at 30.3%.

Consider `Cc1c(N(C(=O)c2cc(-c3cc4c(cc3C(=O)N3Cc5ccccc5C[C@H]3C)CN(C(=O)Cc3ccc(OCCC5CCOCC5)cc3)CC4)n(C)c2C)c2ccc(O)cc2)cc(C#N)n1C` [Example 27, N-(5-cyano-1,2-dimethyl-1H-pyrrol-3-yl)-N-(4-hydroxyphenyl)-1,2-dimethyl-5-{7-[(3R)-3-methyl-1,2,3,4-tetrahydroisoquinoline-2-carbonyl]-2-(2-{4-[2-(oxan-4-yl)ethoxy]phenyl}acetyl)-1,2,3,4-tetrahydroisoquinolin-6-yl}-1H-pyrrole-3-carboxamide], for which, in the series on platelets, the “Platelet loss (%) 6 h” value was 18.6% and the “Platelet loss (%) 24 h” value amounted to 11.0%. The like results for `Cc1c(N(C(=O)c2cc(-c3cc4c(cc3C(=O)N3Cc5ccccc5C[C@H]3CN3CCCCC3)CN(C(=O)Cc3ccc(OCCN5CCOCC5)cc3F)CC4)n(C)c2C)c2ccc(O)cc2)cc(C#N)n1C` [Example 43, N-(5-cyano-1,2-dimethylpyrrol-3-yl)-5-[2-(2-{2-fluoro-4-[2-(morpholin-4-yl)ethoxy]phenyl}acetyl)-7-{[(3S)-3-(piperidin-1-ylmethyl)-3,4-dihydro-1H-isoquinolin-2-yl]carbonyl}-3,4-dihydro-1H-isoquinolin-6-yl]-N-(4-hydroxyphenyl)-1,2-dimethylpyrrole-3-carboxamide] were, in that order, 25.3% and 9.2%. The like results for `Cc1c(N(C(=O)c2cc(-c3cc4c(cc3C(=O)N3Cc5ccccc5C[C@H]3C)CN(C(=O)Cc3ccc(N5CCN6CCOC[C@@H]6C5)cc3F)CC4)n(C)c2C)c2ccc(O)cc2)cc(C#N)n1C` [Example 45, 5-[2-(2-{4-[(9aS)-octahydropyrazino[2,1-c][1,4]oxazin-8-yl]-2-fluorophenyl}acetyl)-7-[(3R)-3-methyl-1,2,3,4-tetrahydroisoquinoline-2-carbonyl]-1,2,3,4-tetrahydroisoquinolin-6-yl]-N-(5-cyano-1,2-dimethyl-1H-pyrrol-3-yl)-N-(4-hydroxyphenyl)-1,2-dimethyl-1H-pyrrole-3-carboxamide] were, in that order, 22.0% and 27.6%. For `COC[C@@H]1Cc2ccccc2CN1C(=O)c1cc2c(cc1-c1cc(C(=O)N(c3ccc(O)cc3)c3cc(C#N)n(C)c3C)c(C)n1C)CCN(C(=O)Cc1ccc(OCCC3CCOCC3)cc1F)C2` [Example 52, N-(5-cyano-1,2-dimethylpyrrol-3-yl)-5-[2-(2-{2-fluoro-4-[2-(oxan-4-yl)ethoxy]phenyl}acetyl)-7-{[(3S)-3-(methoxymethyl)-3,4-dihydro-1H-isoquinolin-2-yl]carbonyl}-3,4-dihydro-1H-isoquinolin-6-yl]-N-(4-hydroxyphenyl)-1,2-dimethylpyrrole-3-carboxamide] the same measures were 34.3% and 33.0%. As for `Cc1c(N(C(=O)c2cc(-c3cc4c(cc3C(=O)N3Cc5ccccc5C[C@H]3C)CN(C(=O)Cc3ccc(OCCN5CCSCC5)cc3)CC4)n(C)c2C)c2ccc(O)cc2)cc(C#N)n1C` [Example 55, N-(5-cyano-1,2-dimethyl-1H-pyrrol-3-yl)-N-(4-hydroxyphenyl)-1,2-dimethyl-5-{7-[(3R)-3-methyl-1,2,3,4-tetrahydroisoquinoline-2-carbonyl]-2-(2-{4-[2-(thiomorpholin-4-yl)ethoxy]phenyl}acetyl)-1,2,3,4-tetrahydroisoquinolin-6-yl}-1H-pyrrole-3-carboxamide], in the series on platelets, the “Platelet loss (%) 6 h” value was found to be 26.9% and the “Platelet loss (%) 24 h” value worked out at 33.9%. Take `Cc1c(C(=O)N(c2ccc(O)cc2)c2cc(C#N)n(C(F)F)c2C)cc(-c2cc3c(cc2C(=O)N2Cc4ccccc4C[C@H]2CN2CCCCC2)CN(C(=O)Cc2ccc(OCCN4CCOCC4)cc2)CC3)n1C` [Example 77]: the IC50 at CYP3A4 is greater than 5 µM. Same read-out and setting: next, `Cc1c(C(=O)N(c2ccc(O)cc2)c2cc(C#N)n(C(F)F)c2C)cc(-c2cc3c(cc2C(=O)N2Cc4ccccc4C[C@H]2CN2CCCCC2)CN(C(=O)Cc2ccc(OCCN4CCOCC4)cc2F)CC3)n1C` [Example 78, N-[5-cyano-1-(difluoromethyl)-2-methylpyrrol-3-yl]-5-[2-(2-{2-fluoro-4-[2-(morpholin-4-yl)ethoxy]phenyl}acetyl)-7-{[(3S)-3-(piperidin-1-ylmethyl)-3,4-dihydro-1H-isoquinolin-2-yl]carbonyl}-3,4-dihydro-1H-isoquinolin-6-yl]-N-(4-hydroxyphenyl)-1,2-dimethylpyrrole-3-carboxamide]: greater than 5 µM.
